Results reported in US10251889B2, “Substituted pyrazolo[1,5-a]pyrimidine compounds as Trk kinase inhibitors” (Array BioPharma, Inc., priority 2009, dated 2019).

What follows are molecules tested against Jak2 (human Jak2 kinase domain, amino acids 808-1132) (Homo sapiens (Human), UniProt O60674) (assay: Jak2 inhibition assay (Omnia kinase assay)). Details: read-out: Jak2 Enzyme (% inhibition at 1000 nM), Table 1; 1000 nM test compound.
Assay type: biochemical

Chain of Jak2 (human Jak2 kinase domain, amino acids 808-1132) (O60674 808-1132): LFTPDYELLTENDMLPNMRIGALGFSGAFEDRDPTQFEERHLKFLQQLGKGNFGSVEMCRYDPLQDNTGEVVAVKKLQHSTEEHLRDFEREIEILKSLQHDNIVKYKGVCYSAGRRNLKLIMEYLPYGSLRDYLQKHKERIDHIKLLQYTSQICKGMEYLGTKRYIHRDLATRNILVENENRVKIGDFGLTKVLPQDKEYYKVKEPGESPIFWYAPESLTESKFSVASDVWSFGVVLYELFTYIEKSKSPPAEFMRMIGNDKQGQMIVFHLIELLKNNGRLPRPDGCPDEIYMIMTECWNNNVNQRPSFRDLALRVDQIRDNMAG

Structure (SMILES) | inhibition at 1 µM
C[C@H](NC(=O)c1cnn2ccc(N3CCC[C@@H]3c3cncc(F)c3)nc12)C(F)(F)F [Example 130, 5-((R)-2-(5-fluoropyridin-3-yl)pyrrolidin-1-yl)-N-((S)-1,1,1-trifluoropropan-2-yl)pyrazolo[1,5-a]pyrimidine-3-carboxamide] | 27.9%
O=C(O)CC1CCN(C(=O)c2cnn3ccc(N4CCC[C@@H]4c4cc(F)ccc4F)nc23)CC1 [Example 12, (R)-2-(1-(5-(2-(2,5-difluorophenyl)pyrrolidin-1-yl)pyrazolo[1,5-a]pyrimidine-3-carbonyl)piperidin-4-yl)acetic Acid] | 4.5%
COc1ncc(F)cc1[C@H]1CCCN1c1ccn2ncc(C(=O)NC[C@H](O)CO)c2n1 [Example 143, N—((S)-2,3-dihydroxypropyl)-5-((R)-2-(5-fluoro-2-methoxypyridin-3-yl)pyrrolidin-1-yl)pyrazolo[1,5-a]pyrimidine-3-carboxamide] | 7%
O=C(NCCn1ccnc1)c1cnn2ccc(N3CCC[C@@H]3c3cc(F)ccc3F)nc12 [Example 28, (R)—N-(2-(1H-imidazol-1-yl)ethyl)-5-(2-(2,5-difluorophenyl)pyrrolidin-1-yl)pyrazolo[1,5-a]pyrimidine-3-carboxamide] | 5%
Cc1ccc(CNC(=O)c2cnn3ccc(N4CCC[C@@H]4c4cc(F)ccc4F)nc23)o1 [Example 5, (R)-5-(2-(2,5-difluorophenyl)pyrrolidin-1-yl)-N-((5-methylfuran-2-yl)methyl)pyrazolo[1,5-a]pyrimidine-3-carboxamide] | 14.2%
Cn1cc(F)cc([C@H]2CCCN2c2ccn3ncc(C(=O)NCC4CC4)c3n2)c1=O [Example 232, (R)-N-(cyclopropylmethyl)-5-(2-(5-fluoro-1-methyl-oxo-1,2-dihydropyridin-3-yl)pyrrolidin-1-yl)pyrazolo[1,5-a]pyrimidine-3-carboxamide] | 31.9%
COc1ncc(F)cc1[C@H]1CCCN1c1ccn2ncc(C(=O)Nc3ccc(=O)[nH]c3)c2n1 [Example 161, (R)-5-(2-(5-fluoro-2-methoxypyridin-3-yl)pyrrolidin-1-yl)-N-(6-oxo-1,6-dihydropyridin-3-yl)pyrazolo[1,5-a]pyrimidine-3-carboxamide] | 27.4%
Nc1ncc(F)cc1[C@H]1CCCN1c1ccn2ncc(C(=O)N3CCC3)c2n1 [Example 221, (R)-(5-(2-(2-amino-5-fluoropyridin-3-yl)pyrrolidin-1-yl)pyrazolo[1,5-a]pyrimidin-3-yl)(azetidin-1-yl)methanone] | -1.2%
Cn1cc(F)cc([C@H]2CCCN2c2ccn3ncc(C(=O)N[C@H]4CC[C@H](O)CC4)c3n2)c1=O [Example 238, 5-((R)-2-(5-fluoro-1-methyl-2-oxo-1,2-dihydropyridin-3-yl)pyrrolidin-1-yl)-N-((trans)-4-hydroxycyclohexyl)pyrazolo[1,5-a]pyrimidine-3-carboxamide] | 58.9%
C[C@H](NC(=O)c1cnn2ccc(N3[C@H](CO)CC[C@@H]3c3cncc(F)c3)nc12)C(F)(F)F [Example 213, 5-((2R,5S)-2-(5-fluoropyridin-3-yl)-5-(hydroxymethyl)pyrrolidin-1-yl)-N—((S)-1,1,1-trifluoropropan-2-yl)pyrazolo[1,5-a]pyrimidine-3-carboxamide] | 21.9%
O=C(c1cnn2ccc(N3CCC[C@@H]3c3cncc(F)c3)nc12)N1CCCCC1 [Example 137, (R)-(5-(2-(5-fluoropyridin-3-yl)pyrrolidin-1-yl)pyrazolo[1,5-a]pyrimidin-3-yl)(piperidin-1-yl)methanone] | 3.6%
Cn1cnc(CNC(=O)c2cnn3ccc(N4CCC[C@@H]4c4cc(F)ccc4F)nc23)c1 [Example 21, (R)-5-(2-(2,5-difluorophenyl)pyrrolidin-1-yl)-N-((1-methyl-1H-imidazol-4-yl)methyl) pyrazole[1,5-a]pyrimidine-3-carboxamide] | 5.8%
CC(C)(O)CNC(=O)c1cnn2ccc(N3CCC[C@@H]3c3cc(F)ccc3F)nc12 [Example 17, (R)-5-(2-(2,5-difluorophenyl)pyrrolidin-1-yl)-N-(2-hydroxy-2-methylpropyl)pyrazolo[1,5-a]pyrimidine-3-carboxamide] | 5.6%
COc1ncc(F)cc1[C@H]1CCCN1c1ccn2ncc(C(=O)NCCCNC(=O)OC(C)(C)C)c2n1 [Example 141, (R)-tert-butyl 3-(5-(2-(5-fluoro-2-methoxypyridin-3-yl)pyrrolidin-1-yl)pyrazolo[1,5-a]pyrimidine-3-carboxamido)propylcarbamate] | 9.4%
Cn1cc(F)cc([C@H]2CCCN2c2ccn3ncc(C(=O)N[C@H](CO)C(C)(C)C)c3n2)c1=O [Example 233, 5-((R)-2-(5-fluoro-1-methyl-2-oxo-1,2-dihydropyridin-3-yl)pyrrolidin-1-yl)-N-((S)-1-hydroxy-3,3-dimethylbutan-2-yl)pyrazolo[1,5-a]pyrimidine-3-carboxamide] | 6.7%
Cc1ncc(F)cc1[C@H]1CCCN1c1ccn2ncc(C(=O)NCCO)c2n1 [Example 188, (R)-5-(2-(5-fluoro-2-methylpyridin-3-yl)pyrrolidin-1-yl)-N-(2-hydroxyethyl)pyrazolo[1,5-a]pyrimidine-3-carboxamide] | 9.3%

Structure (SMILES) | inhibition at 1 µM
CCc1ncc(F)cc1[C@H]1CCCN1c1ccn2ncc(C(=O)N[C@H]3CC[C@H](O)CC3)c2n1 [Example 199, 5-((R)-2-(2-ethyl-5-fluoropyridin-3-yl)pyrrolidin-1-yl)-N-((trans)-4-hydroxycyclohexyl)pyrazolo[1,5-a]pyrimidine-3-carboxamide] | 38.8%
CC(C)(C)NC(=O)c1cnn2ccc(N3CCC[C@@H]3c3cccc(F)c3)nc12 [Example 36, (R)—N-tert-butyl-5-(2-(3-fluorophenyl)pyrrolidin-1-yl)pyrazolo[1,5-a]pyrimidine-3-carboxamide] | 22.2%
C[C@H](O)[C@@H](CO)NC(=O)c1cnn2ccc(N3CCC[C@@H]3c3cc(F)ccc3F)nc12 [Example 176, 5-((R)-2-(2,5-difluorophenyl)pyrrolidin-1-yl)-N-((2R,3S)-1,3-dihydroxybutan-2-yl)pyrazolo[1,5-a]pyrimidine-3-carboxamide] | 6.3%
O=C(NC[C@@H](O)CO)c1cnn2ccc(N3CCC[C@@H]3c3cc(F)ccc3F)nc12 [Example 26, 5-((R)-2-(2,5-difluorophenyl)pyrrolidin-1-yl)-N—((R)-2,3-dihydroxypropyl)pyrazolo[1,5-a]pyrimidine-3-carboxamide] | 9.9%
O=C(NCC(F)(F)F)c1cnn2ccc(N3CCC[C@@H]3c3cncc(F)c3)nc12 [Example 131, (R)-5-(2-(5-fluoropyridin-3-yl)pyrrolidin-1-yl)-N-(2,2,2-trifluoroethyl)pyrazolo[1,5-a]pyrimidine-3-carboxamide] | 14.6%
CC1(NC(=O)c2cnn3ccc(N4[C@H](CO)CC[C@@H]4c4cncc(F)c4)nc23)CC1 [Example 214, 5-((2R,5S)-2-(5-fluoropyridin-3-yl)-5-(hydroxymethyl)pyrrolidin-1-yl)-N-(1-methylcyclopropyl)pyrazolo[1,5-a]pyrimidine-3-carboxamide] | 29.7%
Cc1ncc(F)cc1[C@H]1CCCN1c1ccn2ncc(C(=O)NC[C@@H](C)O)c2n1 [Example 189, (R)-5-(2-(5-fluoro-2-methylpyridin-3-yl)pyrrolidin-1-yl)-N-((R)-2-hydroxypropyl)pyrazolo[1,5-a]pyrimidine-3-carboxamide] | 4.6%
Cn1cc(F)cc([C@H]2CCCN2c2ccn3ncc(C(=O)NC4CCC4)c3n2)c1=O [Example 230, (R)-N-cyclobutyl-5-(2-(5-fluoro-1-methyl-2-oxo-1,2-dihydropyridin-3-yl)pyrrolidin-1-yl)pyrazolo[1,5-a]pyrimidine-3-carboxamide] | 53.3%
Cn1cc(F)cc([C@H]2CCCN2c2ccn3ncc(C(=O)NC4(C)CC4)c3n2)c1=O [Example 237, (R)-5-(2-(5-fluoro-1-methyl-2-oxo-1,2-dihydropyridin-3-yl)pyrrolidin-1-yl)-N-(1-methylcyclopropyl)pyrazolo[1,5-a]pyrimidine-3-carboxamide] | 51.9%
COCCNC(=O)c1cnn2ccc(N3CCC[C@@H]3c3cc(F)cnc3C)nc12 [Example 191, (R)-5-(2-(5-fluoro-2-methylpyridin-3-yl)pyrrolidin-1-yl)-N-(2-methoxyethyl)pyrazolo[1,5-a]pyrimidine-3-carboxamide] | 4.8%
Cn1ccc(NC(=O)c2cnn3ccc(N4CCC[C@@H]4c4cc(F)ccc4F)nc23)n1 [Example 6, (R)-5-(2-(2,5-difluorophenyl)pyrrolidin-1-yl)-N-(1-methyl-1H-pyrazol-3-yl)pyrazolo[1,5-a]pyrimidine-3-carboxamide] | 12.9%
O=C(NC[C@H](O)CO)c1cnn2ccc(N3CCC[C@@H]3c3cc(F)ccc3F)nc12 [Example 29, 5-((R)-2-(2,5-difluorophenyl)pyrrolidin-1-yl)-N—((S)-2,3-dihydroxypropyl)pyrazolo[1,5-a]pyrimidine-3-carboxamide] | 13.2%
CN1CCN(CCNC(=O)c2cnn3ccc(N4CCC[C@@H]4c4cc(F)ccc4F)nc23)CC1 [Example 171, 5-((R)-2-(2,5-difluorophenyl)pyrrolidin-1-yl)-N-(2-(4-methylpiperazin-1-yl)ethyl)pyrazolo[1,5-a]pyrimidine-3-carboxamide] | 7.8%
CC(C)(CO)NC(=O)c1cnn2ccc(N3CCC[C@@H]3c3cc(F)ccc3F)nc12 [Example 8, (R)-5-(2-(2,5-difluorophenyl)pyrrolidin-1-yl)-N-(1-hydroxy-2-methylpropan-2-yl)pyrazolo[1,5-a]pyrimidine-3-carboxamide] | 25.7%
O=C(NC1CC1)c1cnn2ccc(N3CCC[C@@H]3c3cc(F)cc(OCC(O)CO)c3)nc12 (stereo partly drawn) [Example 208, N-cyclopropyl-5-((2R)-2-(3-(2,3-dihydroxypropoxy)-5-fluorophenyl)pyrrolidin-1-yl)pyrazolo[1,5-a]pyrimidine-3-carboxamide] | 21.2%
